Assay results from article PMC8022858, “Discovery of bone morphogenetic protein 7-derived peptide sequences that attenuate the human osteoarthritic chondrocyte phenotype” (Molecular Therapy. Methods & Clinical Development, 2021).

The substances below were run on human OA knee cartilage explants (assay: Gene expression in OA cartilage explants). Settings: n = 7 donors, 24 h, normalized to 28S rRNA, relative to control; BMP7 1 nM (Figure 6A).
Assay type: cell-based
Protocol: To determine whether peptide p[63−82] has the potency to alter chondrocyte behavior in cartilage tissue, rather than isolated HACs, cartilage biopsies from OA knees were cultured in the presence of peptide p[63−82], alongside its scrambled version and full-length BMP7.
Figure 6 Peptide p[63−82] activity on OA knee joint tissues Human OA knee joint tissues were cultured for 24 h in the presence of BMP7, peptide p[63−82], or the scrambled version of peptide p[63−82] and compared to control conditions. (A) Cartilage tissues (n = 7 individual donors) were exposed to shown conditions and analyzed for COL2A1, COL10A1, and COX-2 mRNA expression by quantitative real-time PCR (normalized for 28S rRNA expression and relative to control conditions). (B) GAG release in medium from cartilage tissues (n = 5 individual donors) was determined, and data were calculated relative to the control condition. (C) PGE2 levels in culture supernatant from synovium (n = 5 donors). (D) PGE2 levels in culture supernatant from cartilage tissues from (B) (n = 5 donors). (E) PGE2 levels in culture supernatant from IPFP (n = 5 donors). (F) PGE2 levels in culture supernatant from the meniscus. Synovium, IPFP, and meniscus tissues were from the same 5 donors as the cartilage tissues in (B) and (C). PGE2 levels in conditions were calculated relative to controls for each donor. […] Statistical differences (unpaired two-tailed Student’s t test) were calculated to control condition: ∗p < 0.05, ∗∗p < 0.01, and ∗∗∗p < 0.001.
Cartilage was obtained from total knee arthroplasty of end-stage (K&L grades 3−4) OA patients and from resected knee cartilage from cartilage repair procedures of non-OA patients. […] The bioluminescent readout was performed by lysing cells in Passive Lysis Buffer (Promega) and measuring luciferase activity using the Berthold TriStar^2 LB 942 Modular Multimode Microplate Reader using the Luciferase Assay System for firefly luciferase (BRE and CAGA12) (Promega) and the Gaussia Luciferase Kit (New England Biolabs). […]
“BMP7: full-length recombinant bone morphogenetic protein 7 (R&D Systems), used at 1 nM” was tested, and the “COL2A1, COL10A1, and COX-2 mRNA expression in cartilage explants” value (“COL2A1, COL10A1” for short) was “comparable”. In the case of H-AAYYSEGESAFPLNSYMNAT-OH [p[63−82]], the “COL2A1, COL10A1” value is reported as “induce COL2A1 while inhibiting COL10A1 and COX-2 expression”. “H-SEASPAMYYLNATANFYESG-OH [scrambled p[63−82], scrambled version of peptide p[63−82], reference compound]” was tested, and the “COL2A1, COL10A1” value was “lacked this activity”.
